Columns and labels:
[1] = system: crushed spinal cord ventral white matter strip; assay: Potassium channel blockade (4-AP) as adjunct to PEG-mediated recovery of CAP conduction; parameters: species or system guinea pig; conditions: for Enhancement of recovered CAP by 4-AP, group data: 5 cords; for Enhancement of recovered CAP by 4-AP: reversible
Procedure: The above-described technique should be considered as a basic one, from which testing of several variations described below was performed. For example, tests were made of the response of “recovering” axons to the additional application of the fast potassium channel blocker, 4 aminopyridine (4-AP). In this trial, 5 separate cords were treated with an application of PEG as described above and compared to 5 control cords. One hour after compression, 100 pM 4-AP (in Krebs' solution) was applied for 15 minutes and then washed free with normal Krebs' solution as described above.
Spinal cords were crushed, isolated and treated with PEG as described in Example 1. Analysis was also performed in the double sucrose recording chamber as described in Example 1.

[2] = system: crushed spinal cord ventral white matter strip; conditions: in vitro; Shi and Borgens 1999; cited from earlier work

## Nc1ccncc1 [4-AP, 4-aminopyridine]
[1]; PEG-treated (experimental) group
  Enhancement of recovered CAP by 4-AP, group data: about 70%
[1]; PEG-treated cord, 4-AP at 1 hour post PEG application, individual test
  Enhancement of recovered CAP by 4-AP: about 70%
[1]; control group (crushed, no PEG)
  Enhancement of recovered CAP by 4-AP, group data: about 40%
[1]; crushed cord untreated with PEG, 100 pM 4-AP at 1 hour post injury, single test
  Enhancement of recovered CAP by 4-AP: about 40%
[2]
  Magnitude of the recovered CAP after local 4-aminopyridine in PEG-repaired cord: nearly doubles

Reference: patent US8460646B2, “Methods and compositions for treating mammalian nerve tissue injuries” (Purdue Research Foundation, priority 1998, dated 2013)
